Experimental data: patent EP4201923A1, “5-SUBSTITUTED 2,3-DIHYDROPYRIDIN-4-ONES AND PROCESS FOR PREPARING THE SAME” (Karl-Franzens-Universität Graz, priority 2021, dated 2023)

Tests used:
MRC-5 cells = experiment: Cytotoxicity assay using MRC-5 cells (XTT colorimetric cell viability); format: cell-based, human; conditions: solvent control DMSO 0.1 %
From the text: The results are expressed as cell metabolic activity in % of the solvent control.

Pseudomonas fluorescens = experiment: Antimicrobial activity, drop plate method assay; format: cell-based; set-up: key: high activity (++); medium activity (+); low activity (±); no activity(-); conditions: 10 µl of 1 mg/ml in DMSO dropped on seeded agar plate; read after approximately 10-16 h
Protocol: (§1) A drop plate method assay (Alajlani M et al. Chromatographia 2016, 79, 1527-1532.) with modification was performed to detect the antimicrobial activity against several bacteria strains. Investigated compounds (compounds of examples 1-7, 9) were dissolved in DMSO to a concentration of 1 mg/ml. Using sterile micropipette 10 µl of each compound was directly but gently dropped over seeded agar plate with test organism. The liquid was allowed to diffuse before the plate was inverted and incubated. The growth conditions for every strain were considered. The results were noted when a lawn of the indicator organism appeared on the plate (approximately 10-16 h). The magnitude of activity was noted as high activity (++), medium activity (+), low activity (±) and no activity(-). Not determined data are indicated with n.d. Table 3: Antimicrobial activities of compounds_were detected over the test organisms

Micrococcus luteus = experiment: Antimicrobial activity, drop plate method assay; format: cell-based; set-up: key: high activity (++); medium activity (+); low activity (±); no activity(-); conditions: 10 µl of 1 mg/ml in DMSO dropped on seeded agar plate; read after approximately 10-16 h
Protocol: as §1

Escherichia coli = experiment: Antimicrobial activity, drop plate method assay; format: cell-based; set-up: key: high activity (++); medium activity (+); low activity (±); no activity(-); conditions: 10 µl of 1 mg/ml in DMSO dropped on seeded agar plate; read after approximately 10-16 h
Protocol: as §1

Serratia sp = experiment: Antimicrobial activity, drop plate method assay; format: cell-based; set-up: key: high activity (++); medium activity (+); low activity (±); no activity(-); conditions: 10 µl of 1 mg/ml in DMSO dropped on seeded agar plate; read after approximately 10-16 h
Protocol: as §1

[1] = tested on: human CCRF-CEM leukemia cells; experiment: Anticancer activity by cytotoxicity to human CCRF-CEM leukemia cells (XTT colorimetric cell viability); format: cell-based; conditions: solvent control DMSO 0.1 %
Protocol: Assays were performed using an established cancer cell line, human CCRF-CEM leukemia cells and cell viability determined as described above with a colorimetric assay using the tetrazolium salt XTT as reported (Moshin N et al. Monatshefte für Chemie 2018, 149, 801-812). The anticancer drug vinblastine, the solvent DMSO and the untreated cells are used as control. The compounds of examples 1 to 8 were investigated in concentrations of 5 µM and 50 µM. Table 2: Results for anticancer activity against CCRF-CEM cells expressed as cell metabolic activity in % of the solvent control The results are expressed as cell metabolic activity in % of the solvent control. […] Thus, the compounds of the present invention show a substantial anticancer activity.

Compound | cell metabolic activity in % of the solvent control, mean (MRC-5 cells; compound 5 µM) | cell metabolic activity in % of the solvent control, mean (MRC-5 cells; compound 50 µM) | Antimicrobial activity, Pseudomonas fluorescens (Pseudomonas fluorescens) | Antimicrobial activity, Micrococcus luteus (Micrococcus luteus) | Antimicrobial activity, Escherichia coli (Escherichia coli) | Antimicrobial activity, Serratia sp (Serratia sp) | cell metabolic activity in % of the solvent control, mean ([1]; compound 5 µM) | cell metabolic activity in % of the solvent control, mean ([1]; compound 50 µM) | cell metabolic activity in % of the solvent control, mean (MRC-5 cells; control substance at 100 nM) | cell metabolic activity in % of the solvent control, mean ([1]; control substance at 100 nM)
CC1(C)CC(=O)C(C(c2ccccc2)N2CCCC2)=CN1 (racemic) [Example 1, (RS)-2,3-Dihydro-2,2-dimethyl-5-(phenyl(pyrrolidin-1-yl)methyl)pyridin-4(1H)-one] | 107.18% | 87.86% | + | + | + | ± | 88.69% | 9.02% |  | 
CC1(C)CC(=O)C(C(c2ccccc2)N2CCCCC2)=CN1 (racemic) [Example 2, (RS)-2,3-Dihydro-2,2-dimethyl-5-(phenyl(piperidin-1-yl)methyl)pyridin-4(1H)-one] | 108.05% | 82.27% | + | + | + | ± | 88.18% | 8.75% |  | 
CC1(C)CC(=O)C(C(c2ccccc2)N2CCOCC2)=CN1 (racemic) [Example 3, (RS)-2,3-Dihydro-2,2-dimethyl-5-(phenyl(morpholin-1-yl)methyl)pyridin-4(1H)-one] | 110.88% | 84.05% | + | ++ | + | ± | 93.13% | 10.98% |  | 
CC1(C)CC(=O)C(C(c2ccc(F)cc2)N2CCCC2)=CN1 (racemic) [Example 4, (RS)-2,3-Dihydro-2,2-dimethyl-5-((4-fluorphenyl)-(pyrrolidin-1-yl)methyl)pyridin-4(1H)-one] | 105.92% | 90.99% | + | + | ++ | + | 88.03% | 8.82% |  | 
CC(C)c1ccc(C(C2=CNC(C)(C)CC2=O)N2CCCC2)cc1 (racemic) [Example 5, (RS)-2,3-Dihydro-2,2-dimethyl-5-((4-isopropylphenyl)-(pyrrolidin-1-yl)methyl)pyridin-4(1H)-one] | 104.11% | 42.19% | ++ |  | + | ± | 75.36% | 8.72% |  | 
CC1(C)CC(=O)C(C(c2ccc(F)cc2)N2CCOCC2)=CN1 (racemic) [Example 6, (RS)-2,3-Dihydro-2,2-dimethyl-5-((4-fluorphenyl)(morpholin-1-yl)methyl)pyridin-4 (1H) -one] | 105.36% | 89.35% | ++ |  | + | ± | 87.71% | 8.78% |  | 
Cc1ccc(C(C2=CNC(C)(C)CC2=O)N2CCCC2)cc1 (racemic) [Example 7, (RS)-2,3-Dihydro-2,2-dimethyl-5-((4-methylphenyl)-(pyrrolidin-1-yl)methyl)pyridin-4(1H)-one] | 100.07% | 88.41% | ++ |  | + | ± | 87.47% | 8.52% |  | 
CC1(C)CC(=O)C(C(c2ccccc2C(F)(F)F)N2CCCC2)=CN1 (racemic) [Example 8, (RS)-2,3-Dihydro-2,2-dimethyl-5-((pyrrolidin-1-yl)-(2-trifluormethylphenyl)methyl)pyridin-4(1H)-one] | 103.65% | 67.08% |  |  |  |  | 52.06% | 8.46% |  | 
CC1(C)CC(=O)C(C(c2ccncc2)N2CCCC2)=CN1 (racemic) [Example 9, (RS)-2,3-Dihydro-2,2-dimethyl-5-((4-pyridyl)-(pyrrolidin-1-yl)methyl)pyridin-4(1H)-one] |  |  |  | + | + | ± |  |  |  | 
CC[C@]1(O)C[C@@H]2CN(CCc3c([nH]c4ccccc34)[C@@](C(=O)OC)(c3cc4c(cc3OC)N(C)[C@H]3[C@@](O)(C(=O)OC)[C@H](OC(C)=O)[C@]5(CC)C=CCN6CC[C@]43[C@@H]65)C2)C1 [Vinblastine, vinblastine, reference compound] |  |  |  |  |  |  |  |  | 51.88% | 9.06%
